Test results as given in ChEMBL document CHEMBL1201862, “PubChem BioAssay data set” (2004).
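Cells were grown in 96-well plates and exposed to each compound for 48 hours at five concentrations; endpoints were interpolated linearly between bracketing concentrations, or set to the highest concentration if not reached. GI50: concentration for 50% inhibition of growth.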 Calls of active or inactive are those of the source. Cut-off read from the data, not from the text of the source: active = GI50 up to about 1.1 µM and inactive = higher.

Assays:
Experiment in all cases: NCI anticancer screen, dose series, 48 h
[1] = system: A498
[2] = system: CAKI-1
[3] = system: DU-145
[4] = system: HCT-116
[5] = system: HL-60
[6] = system: HOP-62
[7] = system: HOP-92
[8] = system: MDA-MB-231
[9] = system: MDA-MB-435
[10] = system: Malme-3M
[11] = system: NCI-H23
[12] = system: OVCAR-3
[13] = system: OVCAR-5
[14] = system: OVCAR-8
[15] = system: RPMI-8226
[16] = system: SF-295
[17] = system: SK-OV-3
[18] = system: SW-620
[19] = system: T47D
[20] = system: UACC-257

Row | Compound | GI50 [1] | GI50 [2] | GI50 [3] | GI50 [4] | GI50 [5] | GI50 [6] | GI50 [7] | GI50 [8] | GI50 [9] | GI50 [10] | GI50 [11] | GI50 [12] | GI50 [13] | GI50 [14] | GI50 [15] | GI50 [16] | GI50 [17] | GI50 [18] | GI50 [19] | GI50 [20]
1 | Cc1oc2c(cc(O)c3ccccc32)c2cccc1-2 | > 100 µM (inactive) | > 100 µM (inactive) | 36.1 µM (inactive) | > 100 µM (inactive) | 96.6 µM (inactive) | > 100 µM (inactive) | > 100 µM (inactive) | 14.3 µM (inactive) | > 100 µM (inactive) | > 100 µM (inactive) | > 100 µM (inactive) | > 100 µM (inactive) | > 100 µM (inactive) | > 100 µM (inactive) | > 100 µM (inactive) | > 100 µM (inactive) | > 100 µM (inactive) | > 100 µM (inactive) | > 100 µM (inactive) | > 100 µM (inactive)
2 | Clc1ccccc1C(Nc1cnccn1)Nc1cnccn1 | > 100 µM (inactive) | > 100 µM (inactive) | > 100 µM (inactive) | 98.2 µM (inactive) | 0.692 µM (active) | > 100 µM (inactive) | > 100 µM (inactive) | > 100 µM (inactive) | 8.59 µM (inactive) | > 100 µM (inactive) | > 100 µM (inactive) | > 100 µM (inactive) | > 100 µM (inactive) | > 100 µM (inactive) | 35.1 µM (inactive) | > 100 µM (inactive) | > 100 µM (inactive) | 4.36 µM (inactive) | > 100 µM (inactive) | > 100 µM (inactive)
3 | CC(=O)CCNc1ccc(-c2cc(-c3ccc(N(C)C)cc3)nc3ccc4ccccc4c23)cc1 | 43.8 µM (inactive) | > 65.8 µM (inactive) | > 57.5 µM (inactive) | 18.5 µM (inactive) | 3.7 µM (inactive) | > 100 µM (inactive) | 79.3 µM (inactive) | > 75 µM (inactive) | > 60.7 µM (inactive) | > 67.8 µM (inactive) | > 100 µM (inactive) | 44.8 µM (inactive) | > 100 µM (inactive) | > 100 µM (inactive) | 11.7 µM (inactive) | > 59.4 µM (inactive) | > 100 µM (inactive) | > 100 µM (inactive) | 9.48 µM (inactive) | > 100 µM (inactive)
4 | CC(C)=CCC[C@@H](C)C1=C(O)C(=O)C(C)=C(Nc2ccccc2I)C1=O | 5.43 µM (inactive) | 12.9 µM (inactive) | 23.4 µM (inactive) | 11.8 µM (inactive) | 2.19 µM (inactive) | 7.59 µM (inactive) | 14.5 µM (inactive) | 23.8 µM (inactive) | 21.5 µM (inactive) | 12.2 µM (inactive) | 6.05 µM (inactive) | 4.6 µM (inactive) | 38.2 µM (inactive) | 3.08 µM (inactive) | 9.1 µM (inactive) | 4.22 µM (inactive) | 18.5 µM (inactive) | 21.9 µM (inactive) | 8.2 µM (inactive) | 16.3 µM (inactive)
5 | COC(O)C(=O)c1c2c(cc3c1CC1(Cc4cc5c(cc4C1)CCC5)C3)CCC2 (stereo not given) | 17.9 µM (inactive) | 20.5 µM (inactive) | 19.5 µM (inactive) | 8.73 µM (inactive) | 23.2 µM (inactive) | 15.9 µM (inactive) | 15.7 µM (inactive) | 14.1 µM (inactive) | 2.7 µM (inactive) | 16.3 µM (inactive) | 16.4 µM (inactive) | 15.6 µM (inactive) | 18.2 µM (inactive) | 18.3 µM (inactive) | 8.02 µM (inactive) | 19.7 µM (inactive) | 17.4 µM (inactive) | 16.2 µM (inactive) | 21.9 µM (inactive) | 18.7 µM (inactive)
6 | CCCCCC(C)C[C@H]1CO[C@H](c2ccc[nH]2)N[C@H]1C(=O)OC (stereo not given in full) | > 100 µM (inactive) | > 100 µM (inactive) | > 100 µM (inactive) | > 100 µM (inactive) | > 100 µM (inactive) | > 100 µM (inactive) | 29.9 µM (inactive) | > 100 µM (inactive) | > 100 µM (inactive) | > 100 µM (inactive) | > 100 µM (inactive) | > 100 µM (inactive) | > 100 µM (inactive) | > 100 µM (inactive) | > 100 µM (inactive) | > 100 µM (inactive) | > 100 µM (inactive) | > 100 µM (inactive) | > 100 µM (inactive) | > 100 µM (inactive)
7 | CN(C)c1ccc(/C=N/NC2=N/C(=C\c3ccco3)C(=O)N2)cc1 | > 100 µM (inactive) | > 100 µM (inactive) | > 100 µM (inactive) | > 100 µM (inactive) | > 100 µM (inactive) | > 100 µM (inactive) | > 100 µM (inactive) | > 100 µM (inactive) | > 100 µM (inactive) | > 100 µM (inactive) | > 100 µM (inactive) | > 100 µM (inactive) | > 100 µM (inactive) | > 100 µM (inactive) | > 100 µM (inactive) | > 100 µM (inactive) | > 100 µM (inactive) | > 100 µM (inactive) | > 100 µM (inactive) | > 100 µM (inactive)
8 | CC1C(c2ccccc2O)c2cc3c(cc2OC1N1CCOCC1)OCO3 (stereo not given) | 19.2 µM (inactive) | 25.1 µM (inactive) | 38.5 µM (inactive) | 26.4 µM (inactive) | 20 µM (inactive) | 18.5 µM (inactive) | 27 µM (inactive) | 29.9 µM (inactive) | 25.4 µM (inactive) | 16.9 µM (inactive) | 32.4 µM (inactive) | 22.6 µM (inactive) | 47.5 µM (inactive) | 32.1 µM (inactive) | 15.5 µM (inactive) | 21.7 µM (inactive) | 40.1 µM (inactive) | 42.3 µM (inactive) | 31.7 µM (inactive) | 19.6 µM (inactive)
9 | NC(CP(=O)(O)O)C(=O)O (stereo not given) | > 100 µM (inactive) | > 100 µM (inactive) | > 100 µM (inactive) | > 100 µM (inactive) | > 100 µM (inactive) | > 100 µM (inactive) | > 100 µM (inactive) | > 100 µM (inactive) | > 100 µM (inactive) | > 100 µM (inactive) | > 100 µM (inactive) | > 100 µM (inactive) | > 100 µM (inactive) | > 100 µM (inactive) | > 100 µM (inactive) | > 100 µM (inactive) | > 100 µM (inactive) | > 100 µM (inactive) | > 100 µM (inactive) | > 100 µM (inactive)
10 | O=C(/C=C/c1ccccc1)Oc1ccc(C(=O)/C=C/c2ccccc2)cc1 | > 10 µM (inactive) | 13.1 µM (inactive) | 10.3 µM (inactive) | 9.64 µM (inactive) | 2.84 µM (inactive) | 12.9 µM (inactive) | 17.1 µM (inactive) | 13.2 µM (inactive) | 4.65 µM (inactive) | > 10 µM (inactive) | 10.6 µM (inactive) | 10.3 µM (inactive) | 13.7 µM (inactive) | 10.2 µM (inactive) | 3.25 µM (inactive) | 12.9 µM (inactive) | 21.4 µM (inactive) | 8.75 µM (inactive) | 11 µM (inactive) | 13.6 µM (inactive)
11 | CN1C[C@@H]2CCCN2P1Oc1cccc2cccnc12 (stereo not given in full) | > 100 µM (inactive) | 35.3 µM (inactive) | 83.4 µM (inactive) | 8.69 µM (inactive) | 16.1 µM (inactive) | 52.1 µM (inactive) | > 100 µM (inactive) | 42.6 µM (inactive) | 45.6 µM (inactive) | 25.8 µM (inactive) | 17.9 µM (inactive) | 23.4 µM (inactive) | 32.6 µM (inactive) | 42.6 µM (inactive) | 13.2 µM (inactive) | 85.7 µM (inactive) | > 100 µM (inactive) | 18.7 µM (inactive) | 9.77 µM (inactive) | 29.4 µM (inactive)
